“And” between values parts separate entries of the source, which are not always exact repeats. Equal values may be shown once. Blank lines part the entries; values can stand above or below the compound they belong to.
Test system: SW 1271 complex spheroids, viability
Assay: Anticancer human tumor SW 1271 cell line growth inhibition [LSD1];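 note: spheroids exposed to agents for 7 days before luminescence read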;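 for viability, T/C: 100% = DMSO vehicle control viability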
Conditions: for viability, T/C: stronger effect = lower value
Summary of the method: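 Complex spheroids of tumor cells with HUVEC and human MSCs, exposed to iadademstat combined with other agents. Each agent tested in half-log steps from near clinical Cmax (else 10 microM top), DMSO ≤0.25%.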

[1] = curve of first compound, second compound 0.1 µM
[2] = curve of first compound, second compound 0.316 µM
[3] = curve of first compound, second compound 1 µM
[4] = curve of first compound, second compound 3.16 µM
[5] = curve of first compound, second compound 10 µM

SMILES: CC1COCCN1c1cc(C2(S(C)(=N)=O)CC2)nc(-c2ccnc3[nH]ccc23)n1 (configuration not stated) + NC1CCC(NC2CC2c2ccccc2)CC1
IC50 [1]: > 10 µM | IC50 [2]: 8.63 µM | IC50 [3]: > 10 µM | IC50 [4]: 9.17 µM | IC50 [5]: 3.28 µM | viability, T/C (second compound 0.1 µM, first compound 0.0316 µM): 108% | viability, T/C (second compound 0.1 µM, first compound 0.1 µM): 103% | viability, T/C (second compound 0.1 µM, first compound 0.316 µM): 111% | viability, T/C (second compound 0.1 µM, first compound 1 µM): 76.2% | viability, T/C (second compound 0.1 µM, first compound 3.16 µM): 69.1% | viability, T/C (second compound 0.1 µM, first compound 10 µM): 58.8% | viability, T/C (second compound 0.316 µM, first compound 0.0316 µM): 100% | viability, T/C (second compound 0.316 µM, first compound 0.1 µM): 95.8% | viability, T/C (second compound 0.316 µM, first compound 0.316 µM): 99.1% | viability, T/C (second compound 0.316 µM, first compound 1 µM): 81.7% | viability, T/C (second compound 0.316 µM, first compound 3.16 µM): 59.5% | viability, T/C (second compound 0.316 µM, first compound 10 µM): 48.3% | viability, T/C (second compound 1 µM, first compound 0.0316 µM): 94.5% | viability, T/C (second compound 1 µM, first compound 0.1 µM): 101% | viability, T/C (second compound 1 µM, first compound 0.316 µM): 85.1% | viability, T/C (second compound 1 µM, first compound 1 µM): 68.2% | viability, T/C (second compound 1 µM, first compound 3.16 µM): 72.3% | viability, T/C (second compound 1 µM, first compound 10 µM): 53.7% | viability, T/C (second compound 3.16 µM, first compound 0.0316 µM): 82.9% | viability, T/C (second compound 3.16 µM, first compound 0.1 µM): 88.7% | viability, T/C (second compound 3.16 µM, first compound 0.316 µM): 86.7% | viability, T/C (second compound 3.16 µM, first compound 1 µM): 75.9% | viability, T/C (second compound 3.16 µM, first compound 3.16 µM): 73.4% | viability, T/C (second compound 3.16 µM, first compound 10 µM): 47.9% | viability, T/C (second compound 10 µM, first compound 0.0316 µM): 97.4% | viability, T/C (second compound 10 µM, first compound 0.1 µM): 92.3% | viability, T/C (second compound 10 µM, first compound 0.316 µM): 71.1% | viability, T/C (second compound 10 µM, first compound 1 µM): 78.4% | viability, T/C (second compound 10 µM, first compound 3.16 µM): 50.9% | viability, T/C (second compound 10 µM, first compound 10 µM): 19.4%

IC50 (curve of compound): 0.523 µM and 0.741 µM
SMILES: COc1ccc([C@@H](O)c2cc(-c3ncnc4cc(N5CCOCC5)ccc34)c(F)cc2Cl)nn1
viability, T/C (compound 0.0316 µM): 79.9% and 85.5% | viability, T/C (compound 0.1 µM): 74.7% and 91.9% | viability, T/C (compound 0.316 µM): 54.5% and 64% | viability, T/C (compound 1 µM): 40.4% and 45.4% | viability, T/C (compound 3.16 µM): 31.7% and 28.2% | viability, T/C (compound 10 µM): 20.3% and 21.4%

SMILES: CCN(c1cc(-c2ccc(CN3CCOCC3)cc2)cc(C(=O)NCc2c(C)cc(C)[nH]c2=O)c1C)C1CCOCC1 + NC1CCC(NC2CC2c2ccccc2)CC1
IC50 [1]: > 3 µM | IC50 [2]: > 3 µM | IC50 [3]: > 3 µM | IC50 [4]: > 3 µM | IC50 [5]: > 3 µM | viability, T/C (second compound 0.1 µM, first compound 0.00949 µM): 98.7% | viability, T/C (second compound 0.1 µM, first compound 0.03 µM): 97% | viability, T/C (second compound 0.1 µM, first compound 0.0949 µM): 93.6% | viability, T/C (second compound 0.1 µM, first compound 0.3 µM): 94.8% | viability, T/C (second compound 0.1 µM, first compound 0.949 µM): 82.5% | viability, T/C (second compound 0.1 µM, first compound 3 µM): 75% | viability, T/C (second compound 0.316 µM, first compound 0.00949 µM): 95% | viability, T/C (second compound 0.316 µM, first compound 0.03 µM): 113% | viability, T/C (second compound 0.316 µM, first compound 0.0949 µM): 98.8% | viability, T/C (second compound 0.316 µM, first compound 0.3 µM): 93% | viability, T/C (second compound 0.316 µM, first compound 0.949 µM): 85.5% | viability, T/C (second compound 0.316 µM, first compound 3 µM): 67.3% | viability, T/C (second compound 1 µM, first compound 0.00949 µM): 104% | viability, T/C (second compound 1 µM, first compound 0.03 µM): 103% | viability, T/C (second compound 1 µM, first compound 0.0949 µM): 107% | viability, T/C (second compound 1 µM, first compound 0.3 µM): 94.2% | viability, T/C (second compound 1 µM, first compound 0.949 µM): 71.6% | viability, T/C (second compound 1 µM, first compound 3 µM): 75.8% | viability, T/C (second compound 3.16 µM, first compound 0.00949 µM): 119% | viability, T/C (second compound 3.16 µM, first compound 0.03 µM): 107% | viability, T/C (second compound 3.16 µM, first compound 0.0949 µM): 104% | viability, T/C (second compound 3.16 µM, first compound 0.3 µM): 94.6% | viability, T/C (second compound 3.16 µM, first compound 0.949 µM): 76.5% | viability, T/C (second compound 3.16 µM, first compound 3 µM): 56.8% | viability, T/C (second compound 10 µM, first compound 0.00949 µM): 106% | viability, T/C (second compound 10 µM, first compound 0.03 µM): 105% | viability, T/C (second compound 10 µM, first compound 0.0949 µM): 88.7% | viability, T/C (second compound 10 µM, first compound 0.3 µM): 95.6% | viability, T/C (second compound 10 µM, first compound 0.949 µM): 72.9% | viability, T/C (second compound 10 µM, first compound 3 µM): 66.9%
